We go through one compound from patent publication US5798387A, “Amino acid derivatives” (Zaidan Hojin Biseibutsu Kagaku Kenkyu Kai, priority 1992, dated 1998).

Assay [1] has as its system T cells. The assay can be described thus: T cell proliferation (Test 1), thymidine uptake of Concanavalin A-treated T cells. Format: cell-based, rat (female Fisher 344). Conditions: Rattus norvegicus, 72 h, 3 days, untreated cells = 100, read-out: Rate of stimulating proliferation of T cells. An excerpt: Effects of the novel amino acid derivatives of the general formula (I) on the proliferation of T cells were investigated by the following procedure.
The spleens, which had been excised in sterility from female Fisher 344 rats (12-16 weeks old, purchased from CHARLES RIVER JAPAN, INC), were squeezed in RPMI 1640 medium (a product of NISSUI PHARMACEUTICAL CO., LTD.) supplemented with 10% of fetal bovine serum, followed by passage of the resulting cell suspension through a column containing nylon wool fibres, whereby a cell suspension containing an abundant amount of T cells was obtained. This cell suspension was diluted to a level of 1×10^6 cells/ml with addition of a medium of the same composition as above. The cell-containing medium so obtained was then added with 5 μg/ml of Concanavalin A (product of Pharmacia AB), followed by incubation at 37° C. for 4 hours. Four hours later, α-methylmannoside was added to the incubated medium to give a concentration of 20 mg/ml of α-methylmannoside. After stirring the medium, cells were separated and collected therefrom by centrifugation. The collected cells were suspended at a level of 3×10^6 cells/ml in a medium of the same composition as above, followed by placing the resulting cell suspension in 100 μl portions in a 96-well microplate.
Novel amino acid derivatives at various concentrations, which are shown in Table 4, were incorporated in an amount of 100 μl as the test compounds to the respective cell suspensions in the plate, followed by incubation at 37° C. for 3 days in an incubator under air atmosphere containing 5% of carbon dioxide. Meanwhile, eighteen hours before the completion of the incubation, a solution of 10μ Ci/ml of radioactively labeled thymidine (Thymidine "6-^3 H", a product of NEN Company) was added in an amount of 10 μl to the cell suspensions under incubation. The cells after the incubation were collected on a filter paper by means of a cell harvester, washed with water and radioactivity of the cells so treated was determined by a liquid scintillation counter. The determined values of the radioactivity of the cells as treated with the test compounds were evaluated on the assumption that the determined value of the radioactivity of the cells untreated, namely tested without addition of the test compound during the incubation of cells was amounting to 100. The so evaluated values are recorded and expressed as rates (%) for stimulating the T cell proliferation which show such extent that the proliferation of T cells is enhanced by the new amino acid derivative of this invention.

Assay [2] concerns Ehrlich ascites carcinoma. As to the kind of experiment: Antitumor activity (Test 2), Ehrlich ascites carcinoma transplanted subcutaneously. As to conditions: 0.5 mg/kg i.p. daily for 7 days; tumor weight on day 15 vs control. Format: in vivo, mouse (ICR). How it is done: The antitumor activity of some amino acid derivatives of the general formula (I) according to this invention was tested in the following manner. A suspension of Ehrlich ascites carcinoma cells was subcutaneously injected to one of the inguinal parts of each ICR mouse to transplant 4×10^6 cells/mouse. From the seventh day after the transplantation, a test compound was intraperitoneally injected daily for 7 days at a dose of 50, 5 or 0.5 mg/kg (4 mice per treated group of mice, but 8 mice per untreated control group of mice). On the fifteenth day after the transplantation, a solid cancer was cut out and weighed. A reduction in the weight of solid cancers of the mice in each treated group of mice which was evaluated in comparison with the control group is expressed as rate of inhibiting the tumor growth (%) in Table 5 below.

For assay [3], the system named is bone-marrow cells (hematopoietic stem cells; megakaryocytes). The assay can be described thus: Formation of colonies of megakaryocytes from bone-marrow cells (Test 3). As to conditions: Mus musculus, Bone marrow cell, 168 h; concentration of test compound 5 μg/ml; 7 days; no addition = 100; read-out: Number of colonies of megakaryocytes. Format: cell-based, mouse (male BALB/c). How it is done:
The activity of some amino acid derivatives of the general formula (I) according to this invention which induces proliferation of hematopoietic stem cells was tested in the following manner. Thus, bone-marrow cells had been prepared from the femurs of male BALB/c mouse (6-7 weeks old), and then a suspension of the bone-marrow cells was overlayed on "Lympholite M" (product of Cefalane Company), followed by centrifugation under 1500 g for 20 minutes. A lymphocyte fraction was collected, washed three times with "alpha MEM medium" (product of Gibco Company), and then diluted and suspended in the same medium as above to give a lymphocyte concentration of 7×10^6 cells/ml.
[…] of the resulting cell suspension, 50 μl of a solution of a test compound in physiological saline, 50 μl of a culture supernatant of WEHI-3, 100 μl of phosphate-buffered physiological saline, 50 μl of a pre-deionized 10% bovine serum albumin solution, 50 μl of an L-asparagin solution (200 μg/ml), 50 μl of a calcium chloride solution (260 μg/ml) and 50 μl of bovine plasma containing sodium citrate were combined together. The liquid mixture so obtained was poured in portions of 50 μl/well on a slide glass ("Glass Ware", product of Flaw Laboratory Company). After coagulation of the mixture, the slide glass bearing the coagulated masses was immersed in 10% FBS-added alpha MEM medium, followed by incubation at 37° C. under 5% CO2 for 7 days.
After completion of the incubation, the cells on the slide glass were immobilized with a 25% glutaraldehyde solution. In accordance with the methods proposed by Nagasawa et al. ["Zoketsu Kan Saibo (Hematopoietic Stem Cells)" compiled by takahisa Shimamaro, page 128 (The Nishimura Shoten Co., Ltd.)], the immobilized cells were stained for acetylcholinesterase activity which is specific for mouse megakaryocytes, and also the cells were stained with Mayer hematoxylin. Each cell culture so stained was dried and then sealed with a sealing agent. Under a microscope of ×100 magnification, the number of megakaryocytic colonies (i.e., the number of cells stained in an orange color) per well was counted.

SMILES strings stand for the structures.

Take `CC(O)C(C)C(O)C(=O)NC(CO)C(=O)OCc1ccccc1` (centres unmarked) [Compound 12]: the activity at 0.1 µg/mL in assay [1] (concentration of compound 0.1 μg/ml) is 265%. Besides, the activity at 1 µg/mL in assay [1] (concentration of compound 1 μg/ml) amounted to 185%. Moreover, the activity at 10 µg/mL in assay [1] (concentration of compound 10 μg/ml) was determined as 242%. The “Tumor growth inhibiting rate” value in assay [2] was 37%. In addition, the activity at 5 µg/mL in assay [3] is 105%.
